Like-named read-outs stand apart in the source and are kept apart here.

What all share (assay): MIC (CLSI broth dilution), agent alone
Test [1] concerns MSSA. Type of test: cell-based, Staphylococcus aureus. Conditions: for MIC: S. aureus control, agent alone. As to the method: (§1) VISA (strains 92, 95 and 96), VRSA (strains 105 and 106) and E. coli (strain 69717) isolates were also tested. One MSSA was used as a control. All MICs were assessed using CLSI guidelines. Also assessed was the activity of cefazolin, ceftriazone, meropenem, and a piperacillin/tazobactam combination antibiotic. Minimum inhibitory concentration (MIC) is the lowest concentration of an antimicrobial that will inhibit the visible growth of a microorganism after incubation.
(§2) Antimicrobial Susceptibility Testing: A custom designed panel of antimicrobials was created. […] These agents were obtained as laboratory grade powders from their respective manufacturers. Stock solutions were prepared and dilutions made as described by the Clinical Laboratory Standards Institute (2005 CLSI). Following two subcultures from frozen stock the MICs of the antimicrobial agents for the isolates were determined by the CLSI 2005 approved broth macrodilution method. Briefly, test tubes containing doubling antibiotic dilutions (2 ml per tube) of cation adjusted Mueller-Hinton broth (eg. for Enterobacteriaceae) with or without lysed horse blood (2-5% V/V) [eg. for S. pneumoniae] were inoculated to achieve a final concentration of approximately 5×10^5 CFU/ml and incubated in ambient air for 24 hours prior to reading. Colony counts were performed periodically to confirm inocula. Quality control was performed every two weeks using a variety of ATCC QC organisms including; S. aureus 29213, E. faecalis 29212, E. coli 25922 and P. aeruginosa 27853.
(§3) One MSSA was used as a control. All MICs were assessed using CLSI guidelines.
(§4) One MS SA and ATCC reference strains were used as controls. All MICs were assessed using CLSI guidelines.

Test [2] deals with HA-MRSA. Type of test: cell-based, Staphylococcus aureus. The protocol:
as §1, §2, §3, §4

In test [3] the test system is CA-MRSA. The format is cell-based, Staphylococcus aureus. The note with it: for MIC: Staphylococcus aureus. As to the method: as §1, §2, §3, §4
Test [4] deals with E. coli. Type of test: cell-based, Escherichia coli. The protocol: as §1
Antimicrobial Susceptibility Testing: A custom designed panel of antimicrobials was created. The panel included: PEP35, penicillin, piperacillin/tazobactam, cefazolin, ceftriaxone, meropenem, clarithromycin, clindamycin, gentamicin, amikacin, vancomycin, ciprofloxacin, levofloxacin, moxifloxacin, linezolid, trimethoprim/sulfamethoxazole and doxycycline. These agents were obtained as laboratory grade powders from their respective manufacturers. Stock solutions were prepared and dilutions made as described by the Clinical Laboratory Standards Institute (2005 CLSI). Following two subcultures from frozen stock the MICs of the antimicrobial agents for the isolates were determined by the CLSI 2005 approved broth macrodilution method. Briefly, test tubes containing doubling antibiotic dilutions (2 ml per tube) of cation adjusted Mueller-Hinton broth (eg. for Enterobacteriaceae) with or without lysed horse blood (2-5% V/V) [eg. for S. pneumoniae] were inoculated to achieve a final concentration of approximately 5×10^5 CFU/ml and incubated in ambient air for 24 hours prior to reading. Colony counts were performed periodically to confirm inocula. Quality control was performed every two weeks using a variety of ATCC QC organisms including; S. aureus 29213, E. faecalis 29212, E. coli 25922 and P. aeruginosa 27853. For all antimicrobials as well as PEP35, CLSI criteria were used.
as §4

In the case of `CC1=C(C(=O)O)N2C(=O)[C@@H](NC(=O)[C@H](N)c3ccccc3)[C@H]2SC1` [Cephalexin], the “Cephalexin (MIC)” value in test [1] (S. aureus (control row), antibiotic alone, two values in cell) is listed as 4/4; in test [4] (E. coli, antibiotic alone, two values in cell), 8/8. Further, the MIC in test [1] came to 8 µg/mL; in test [1] (Staphylococcus aureus, MSSA, read-out: MIC), 4 µg/mL; in test [2] (Staphylococcus aureus, MRSA / USA200, read-out: Cephalexin (MIC), HA-MRSA (CMRSA4/USA200), antibiotic alone) it was 512 µg/mL; in test [3] (MRSA / USA300), 128 µg/mL; in test [3] (MRSA / USA400) it was 128 µg/mL; in test [3] (MRSA / USA400, CA-MRSA (CMRSA7/USA400/MW2) isolates, one per table line, agent alone, read-out: MIC), 512 µg/mL. The MIC in test [4] (Escherichia coli, E. coli control, agent alone, read-out: MIC) was found to be 8 µg/mL. The entries for the “MICs alone, range” value in test [2] (50 HA-MRSA strains) and in test [3] (50 CA-MRSA strains) were 128 to 512 µg/mL and 64 to 512 µg/mL, respectively. For the same compound, the “strains resistant to the antibiotic” value in test [2] (50 HA-MRSA strains) and in test [3] (50 CA-MRSA strains) was 50 of the 50 strains throughout.
